For nine molecules, inhibition and IC50 results are on record in US10017481B2, “Conformationally constrained, fully synthetic macrocyclic compounds” (POLYPHOR AG, priority 2012, dated 2018).

Each structure is given as a SMILES string.

The target in assay [1] is T1, Thyrotropin-releasing hormone receptor (TRH receptor) (Homo sapiens, UniProt P34981).
T1 construct: expressed in transfected cells; host or cells: Ca2+ optimized hematopoietic cell lines (rat)
T1 sequence (P34981 1-398): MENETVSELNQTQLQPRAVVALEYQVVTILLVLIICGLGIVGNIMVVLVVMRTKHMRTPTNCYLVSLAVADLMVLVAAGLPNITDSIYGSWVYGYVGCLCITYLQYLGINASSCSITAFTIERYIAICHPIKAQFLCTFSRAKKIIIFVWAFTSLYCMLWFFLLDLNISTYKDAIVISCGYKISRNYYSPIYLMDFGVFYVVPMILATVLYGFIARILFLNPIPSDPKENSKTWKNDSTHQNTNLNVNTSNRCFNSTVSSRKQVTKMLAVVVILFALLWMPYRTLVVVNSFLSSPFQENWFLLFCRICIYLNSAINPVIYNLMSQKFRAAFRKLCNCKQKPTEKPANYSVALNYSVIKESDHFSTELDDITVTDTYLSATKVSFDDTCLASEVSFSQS
Description: Ca2+ flux (FLIPR) assay, TRH receptor, agonist/antagonist mode. Type of assay: cell-based. As to conditions: antagonist mode. The procedure:
Biological and Pharmacological Methods 1. Ca^2+ Flux Assays for the GPCRs Oxytocin Receptor (OT Receptor), Thyrotropin-Releasing Hormone Receptor (TRH Receptor) and Bombesin Receptor Subtype 3 (BB3 Receptor)
Assays were performed on a FLIPR^TETRA fluorometric imaging plate reader (Molecular Devices) with ScreenWorks Version 2 (Molecular Devices) as device operating and data analysis software.
Dose dependent agonist and antagonist activities were determined. Percentage activation and percentage inhibition values were determined.
Percentage activation was determined upon initial addition of the sample compounds followed by 10 minutes' incubation at 25° C. Following compound incubation, reference agonists were added at EC80 to determine percentage inhibition.
Reference agonists were purchased from reputable commercial vendors and prepared according to each ligand's specifications. All handling of ligands were done to ensure proper control throughout the experiments.
Example compounds were weighed on a Microbalance (Mettler MX5) and dissolved in 100% DMSO to a final concentration of 2.5 mM and subsequently diluted into the assay buffer.
The assay buffer was a supplemented HBSS (Hank's Balanced Salt Solution). HBSS was supplemented with 20 mM HEPES (4-(2-hydroxyethyl)-piperazin-1-ethansulfonic acid) and 2.5 mM Probenecid (Sigma P8761).
GPCR assays were performed using Ca^2+ optimized hematopoietic cell lines (rat) with cultures never exceeding 90% confluency. Cells were harvested and seeded (from cultures at less than 90% confluency) at 50000 cells/well for a 96-well plate (12500 cells/well for 384). After seeding, the assay plates were incubated for 45 minutes at room temperature. After room temperature incubation, the assay plates were incubated at 37° C. 5% CO2 for 24 hours prior to assaying.
All GPCR assays were performed using Fluo-8 Ca^2+ dye.
Ca^2+ dye was prepared at 1× dye concentration in GPCR assay buffer. After 24 hours of incubation, cells were washed with GPCR assay buffer, and then Ca^2+-dye (100 μL/well) was added.
The plates were incubated for 90 minutes at 30° C. 5% CO2 prior to FLIPR assay.
Compound plates were prepared to add 50 μL/well during the agonist assay mode. During the FLIPR assay, 50 μL/well from the compound plate was diluted 3-fold into the existing 100 μL/well from the dye loading step. Therefore all compounds were prepared as 3× the final concentration desired in the assay.
After completion of the first single addition assay run, assay plate was removed from the FLIPR Tetra and placed at 25° C. for 7 minutes before antagonist assay.
Using the EC80 values determined during the agonist assay, all pre-incubated sample compound and reference antagonist (if applicable) wells were stimulated at the EC80 of the reference agonist. As reference ligands for these assays their obvious natural ligands oxytocin (OT), thyrotropin-releasing hormone (TRH) and bombesin (6-14) [BN(6-14)] were used.
After the addition of the reference agonist fluorescence was monitored for 180 sec using FLIPR Tetra.
From the FLIPR data, with negative control correction enabled, the maximum statistic for each well was exported and percentage activation relative to Emax control was calculated.

Another assay addresses T2, Human recombinant ECE-1 (Homo sapiens, UniProt P42892).
T2 construct: host or cells: murine myeloma NS0 cells
T2 sequence (P42892 1-770): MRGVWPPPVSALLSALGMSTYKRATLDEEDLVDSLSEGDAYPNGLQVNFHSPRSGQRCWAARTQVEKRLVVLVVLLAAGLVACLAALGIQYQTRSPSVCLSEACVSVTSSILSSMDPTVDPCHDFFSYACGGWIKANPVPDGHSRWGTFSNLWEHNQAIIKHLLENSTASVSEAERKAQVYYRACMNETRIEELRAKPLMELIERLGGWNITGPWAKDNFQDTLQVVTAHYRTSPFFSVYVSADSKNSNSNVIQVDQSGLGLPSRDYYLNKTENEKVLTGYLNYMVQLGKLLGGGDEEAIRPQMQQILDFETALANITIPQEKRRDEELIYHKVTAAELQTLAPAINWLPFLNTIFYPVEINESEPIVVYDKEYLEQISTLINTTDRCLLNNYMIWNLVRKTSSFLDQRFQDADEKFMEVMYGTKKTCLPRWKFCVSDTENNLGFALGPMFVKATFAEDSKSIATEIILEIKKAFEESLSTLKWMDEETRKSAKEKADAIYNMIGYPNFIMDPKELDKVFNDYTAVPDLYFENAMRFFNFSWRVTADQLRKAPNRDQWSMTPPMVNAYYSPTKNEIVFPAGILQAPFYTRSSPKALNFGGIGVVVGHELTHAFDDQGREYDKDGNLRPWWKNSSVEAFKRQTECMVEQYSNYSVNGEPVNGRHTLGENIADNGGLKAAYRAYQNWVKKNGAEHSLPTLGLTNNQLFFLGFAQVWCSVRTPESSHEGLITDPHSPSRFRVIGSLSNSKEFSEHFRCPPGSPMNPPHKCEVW
In words: Endothelin converting enzyme-1 (ECE-1) enzyme assay. As to conditions: for inhibition at 10 µM: read-out: % Inhibition at 10 μM. Type of assay: biochemical. The procedure:
(§1) 2. Enzyme Assays for the Peptidase Endothelin Converting Enzyme-1 (ECE-1) and for the Cysteine Protease Cathepsin S (CatS)
(§2) The assays were performed according to provider's (Ricerca Biosciences, LLC) protocols which in turn are based on literature procedures (for ECE-1 cf.: O. Valdenaire et al., Eur. J. Biochem. 1999, 264, 341-349; F. D. Russell, A. P. Davenport, Circ. Res. 1999, 84, 891-896; and for CatS: G P Shi et al., J. Biol. Chem. 1992, 267, 7258-62; D Brömme et al., J. Biol. Chem. 1993 268, 4832-4838.).
Human recombinant ECE-1 expressed in murine myeloma cells NS0 is used. Test compound and/or vehicle is preincubated with 20 ng/ml enzyme in modified MES buffer pH 6.0 for 15 minutes at 25° C. The reaction is initiated by addition of […] Mca-[…]Dnp) for another 60 minutes' incubation period. Determination of the amount of Mca-Arg-Pro-Pro-Gly-Phe-Ser-Ala formed is read […] at 320 nm/405 nm. Compounds are screened at […].
IC50 values were determined by a non-linear, least squares regression analysis using MathIQ™ (ID Business Solutions Ltd., UK). […] The Hill coefficient (nH), defining the slope of the competitive binding curve, was calculated using MathIQ™.

Assay [2] deals with T3, Human recombinant cathepsin S (Homo sapiens, UniProt P25774).
T3 construct: host or cells: murine myeloma NS0 cells
T3 sequence (P25774 115-331): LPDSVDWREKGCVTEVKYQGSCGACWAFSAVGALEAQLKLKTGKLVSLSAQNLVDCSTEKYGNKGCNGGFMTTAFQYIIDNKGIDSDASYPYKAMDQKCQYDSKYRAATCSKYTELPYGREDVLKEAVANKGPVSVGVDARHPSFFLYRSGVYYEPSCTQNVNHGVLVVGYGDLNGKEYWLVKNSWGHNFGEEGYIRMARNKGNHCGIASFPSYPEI
Description: Cathepsin S (CatS) enzyme assay. Type of assay: biochemical. As to conditions: for inhibition at 10 µM: 10 μM compound. How it is done: as §1, §2
Human recombinant cathepsin S expressed in a murine myeloma NS0 cells is used. Test compound and/or vehicle is preincubated with 0.1 μg/ml enzyme in modified acetate buffer pH 4.5 for 15 minutes at 25° C. The reaction is initiated by addition of […] Z-Leu-Arg-AMC for another 30 minutes' incubation period. Determination of the amount of AMC formed is read spectrofluorimetrically at 360 nm/465 nm. […]
IC50 values were determined by a non-linear, least squares regression analysis using MathIQ™ (ID Business Solutions Ltd., UK). Inhibition constants K were calculated according to the equation of Cheng and Prusoff (Y. Cheng, W. H. Prusoff, Biochem. Pharmacol. 1973, 22, 3099-3108) using the observed IC50 of the tested compound, the concentration of radioligand employed in the assay, and the historical values for the KD of the ligand. The Hill coefficient (nH), defining the slope of the competitive binding curve, was calculated using MathIQ™.

In the case of `O=C(Cc1cccc2ccccc12)N[C@@H]1CCNC(=O)c2ccccc2-c2cccc(c2)OC[C@@H]2C[C@H](NC(=O)Nc3cccnc3)CN2C1=O` [Ex. 333, N-[(12R,16S,18S)-8,13-dioxo-16-{[(3-pyridinylamino)carbonyl]amino}-20-oxa-9,14-diazatetracyclo[19.3.1.0^2,7.0^14,18]pentacosa-1(25),2,4,6,21,23-hexaen-12-yl]-2-(1-naphthyl)acetamide], at 10 µM the inhibition in assay [1] was 35%.

In assay [1], `O=C(CN1CCCC1)N[C@H]1C[C@H]2COc3cccc(c3)-c3ccccc3C(=O)NCC[C@@H](NC(=O)Cc3cccc4ccccc34)C(=O)N2C1` [Ex. 7, N-[(12R,16S,18S)-8,13-dioxo-16-{[2-(1-pyrrolidinyl)acetyl]amino}-20-oxa-9,14-diazatetracyclo[19.3.1.0^2,7.0^14,18]pentacosa-1(25),2,4,6,21,23-hexaen-12-yl]-2-(1-naphthyl)acetamide] registered an IC50 of 1.4 µM and an inhibition at 10 µM of 91%.

For the molecule `O=C(CN1CCCC1)N[C@H]1C[C@H]2COc3cccc(c3)-c3ccccc3C(=O)NCC[C@@H](NC(=O)CC3CCCCC3)C(=O)N2C1` [Ex. 335, 2-cyclohexyl-N-[(12R,16S,18S)-8,13-dioxo-16-{[2-(1-pyrrolidinyl)acetyl]amino}-20-oxa-9,14-diazatetracyclo[19.3.1.0^2,7.0^14,18]pentacosa-1(25),2,4,6,21,23-hexaen-12-yl]acetamide], in assay [1], the inhibition at 10 µM is 34%.

Take `O=C(Cn1ccnc1)N[C@H]1C[C@H]2COc3cccc(c3)-c3ccccc3C(=O)NCC[C@@H](NC(=O)Cc3cccc4ccccc34)C(=O)N2C1` [Ex. 332, 2-(1H-imidazol-1-yl)-N-[(12R,16S,18S)-12-{[2-(1-naphthyl)acetyl]amino}-8,13-dioxo-20-oxa-9,14-diazatetracyclo[19.3.1.0^2,7.0^14,18]pentacosa-1(25),2,4,6,21,23-hexaen-16-yl]acetamide]: in assay [1], 10 µM produced 29% inhibition.

For the molecule `CN1CCC[C@H](NC(=O)Cc2ccccc2)C(=O)N2C[C@@H](NC(=O)Cc3ccc4ccccc4c3)C[C@H]2COc2ccccc2-c2cccc(c2)C1=O` [Ex. 25, N-[(10S,12S,16S)-20-methyl-15,21-dioxo-16-[(2-phenylacetyl)amino]-8-oxa-14,20-diazatetracyclo[20.3.1.0^2,7.0^10,14]hexacosa-1(26),2,4,6,22,24-hexaen-12-yl]-2-(2-naphthyl)acetamide], at Human recombinant ECE-1, the IC50 worked out at 4.28 µM and the inhibition at 10 µM is 97%. Also, in assay [2], the IC50 worked out at 3.18 µM and the inhibition at 10 µM turned out to be 87%.

In the case of `CN1CCC[C@H](NC(=O)c2ccccc2)C(=O)N2C[C@@H](NC(=O)Cc3ccc4ccccc4c3)C[C@H]2COc2ccccc2-c2cccc(c2)C1=O` [Ex. 26, N-[(10S,12S,16S)-20-methyl-12-{[2-(2-naphthyl)acetyl]amino}-15,21-dioxo-8-oxa-14,20-diazatetracyclo[20.3.1.0^2,7.0^10,14]hexacosa-1(26),2,4,6,22,24-hexaen-16-yl]benzamide], on Human recombinant ECE-1, the IC50 amounted to 4.07 µM and the inhibition at 10 µM was determined as 98%. In assay [2], the IC50 was 3.83 µM and the inhibition at 10 µM is 81%.

The molecule `O=C(CN1CCCC1)N[C@H]1C[C@H]2COc3cccc(c3)-c3ccccc3C(=O)NCC[C@@H](NC(=O)Cc3cccc(Cl)c3)C(=O)N2C1` [Ex. 334, 2-(3-chlorophenyl)-N-[(12R,16S,18S)-8,13-dioxo-16-{[2-(1-pyrrolidinyl)acetyl]amino}-20-oxa-9,14-diazatetracyclo[19.3.1.0^2,7.0^14,18]pentacosa-1(25),2,4,6,21,23-hexaen-12-yl]acetamide] displayed an inhibition at 10 µM in assay [1] of 40%.

In the case of `CN1CCC[C@H](NC(=O)OCc2ccccc2)C(=O)N2C[C@@H](NC(=O)Cc3ccc4ccccc4c3)C[C@H]2COc2ccccc2-c2cccc(c2)C1=O` [Ex. 18, benzyl N-[(10S,12S,16S)-20-methyl-12-{[2-(2-naphthyl)acetyl]amino}-15,21-dioxo-8-oxa-14,20-diazatetracyclo[20.3.1.0^2,7.0^10,14]hexacosa-1(26),2,4,6,22,24-hexaen-16-yl]carbamate], the results for the IC50 (on Human recombinant ECE-1; in assay [2]) were 3.01 µM and 3.65 µM, respectively. Further, the inhibition at 10 µM is 98% at Human recombinant ECE-1 and 82% in assay [2].

As for `O=C(CN1CCCC1)N[C@H]1C[C@H]2COc3cccc(c3)-c3ccccc3C(=O)NCC[C@@H](NC(=O)Nc3cccc4ccccc34)C(=O)N2C1` [Ex. 336, N-[(12R,16S,18S)-12-{[(1-naphthylamino)carbonyl]amino}-8,13-dioxo-20-oxa-9,14-diazatetracyclo[19.3.1.0^2,7.0^14,18]pentacosa-1(25),2,4,6,21,23-hexaen-16-yl]-2-(1-pyrrolidinyl)acetamide], in assay [1], the IC50 is 8.2 µM and the inhibition at 10 µM was determined as 48%.
